Columns and labels:
[1] = target: Inhibitor of nuclear factor kappa-B kinase subunit epsilon (Homo sapiens) (UniProt Q14164); test: Inhibition of wild-type human full length IKK-epsilon (M1 to V716 residues) expressed in mammalian expression system at 1 uM by Kinomescan method relative to control
[2] = target: Death-associated protein kinase 1 (Homo sapiens) (UniProt P53355); test: Inhibition of wild-type human partial length DAPK1 (M1 to F296 residues) expressed in bacterial expression system at 1 uM by Kinomescan method relative to control
[3] = target: G protein-coupled receptor kinase 3 (Homo sapiens) (UniProt P35626); test: Inhibition of wild-type human full length GRK3 (M1 to L688 residues) expressed in mammalian expression system at 1 uM by Kinomescan method relative to control
[4] = target: Casein kinase I isoform epsilon (Homo sapiens) (UniProt P49674); test: Inhibition of wild-type human full length CSNK1E (M1 to K416 residues) expressed in bacterial expression system at 1 uM by Kinomescan method relative to control
[5] = target: Dual specificity testis-specific protein kinase 1 (Homo sapiens) (UniProt Q15569); test: Inhibition of wild-type human full length TESK1 (R37 to S626 residues) expressed in bacterial expression system at 1 uM by Kinomescan method relative to control
[6] = target: RAC-gamma serine/threonine-protein kinase (Homo sapiens) (UniProt Q9Y243); test: Inhibition of wild-type human partial length AKT3 expressed in bacterial expression system at 1 uM by Kinomescan method relative to control
[7] = target: Dual specificity mitogen-activated protein kinase kinase 2 (Homo sapiens) (UniProt P36507); test: Inhibition of wild-type human full length MEK2 (M1 to V400 residues) expressed in mammalian expression system at 1 uM by Kinomescan method relative to control
[8] = target: Mitogen-activated protein kinase kinase kinase 2 (Homo sapiens) (UniProt Q9Y2U5); test: Inhibition of wild-type human partial length MAP3K2 (S315 to H619 residues) expressed in mammalian expression system at 1 uM by Kinomescan method relative to control
[9] = target: Ribosomal protein S6 kinase alpha-1 (Homo sapiens) (UniProt Q15418); test: Inhibition of wild-type human partial length N-terminal RSK1 Kinase domain 1 (M1 to E388 residues) expressed in bacterial expression system at 1 uM by Kinomescan method relative to control
[10] = tested on: Receptor-type tyrosine-protein kinase FLT3 (Homo sapiens), P36888 [D835V]; test: Inhibition of human partial length FLT3 D835V mutant (V592 to Y969 residues) expressed in bacterial expression system at 1 uM by Kinomescan method relative to control
[11] = target: Tyrosine-protein kinase Srms (Homo sapiens) (UniProt Q9H3Y6); test: Inhibition of wild-type human partial length SRMS (L208 to P488 residues) expressed in mammalian expression system at 1 uM by Kinomescan method relative to control
[12] = target: Cyclin-dependent kinase 5 (Homo sapiens) (UniProt Q00535); test: Inhibition of wild-type human full length CDK5 (M1 to P292 residues) expressed in bacterial expression system at 1 uM by Kinomescan method relative to control
[13] = target: Activin receptor type-2B (Homo sapiens) (UniProt Q13705); test: Inhibition of wild-type human ACVR2B (H169 to D504 residues) expressed in bacterial expression system at 1 uM by Kinomescan method relative to control
[14] = tested on: Tyrosine-protein kinase ABL1 (Homo sapiens), P00519 [Q252H]; test: Inhibition of human phosphorylated ABL1 Q252H mutant expressed in mammalian expression system at 1 uM by Kinomescan method relative to control
[15] = target: Serine/threonine-protein kinase Chk1 (Homo sapiens) (UniProt O14757); test: Inhibition of wild-type human partial length CHEK1 (M1 to G289 residues) expressed in bacterial expression system at 10 uM by Kinomescan method relative to control
[16] = target: Cyclin-dependent kinase 3 (Homo sapiens) (UniProt Q00526); test: Inhibition of wild-type human full length CDK3 (M1 to H305 residues) expressed in bacterial expression system at 10 uM by Kinomescan method relative to control
[17] = target: Casein kinase II subunit alpha (Homo sapiens) (UniProt P68400); test: Inhibition of wild-type human full length CSNK2A1 (M1 to Q391 residues) expressed in mammalian expression system at 10 uM by Kinomescan method relative to control
[18] = target: Myosin light chain kinase, smooth muscle (Homo sapiens) (UniProt Q15746); test: Inhibition of wild-type human full length MYLK (M854 to E1845 residues) expressed in mammalian expression system at 10 uM by Kinomescan method relative to control
[19] = target: Serine/threonine-protein kinase PknB (Mycobacterium tuberculosis) (UniProt P9WI81); test: Inhibition of wild-type Mycobacterium tuberculosis partial length PKNB (M1 to G279 residues) expressed in mammalian expression system at 10 uM by Kinomescan method relative to control
[20] = target: Mitogen-activated protein kinase kinase kinase kinase 4 (Homo sapiens) (UniProt O95819); test: Inhibition of wild-type human partial length MAP4K4 (M1 to R310 residues) expressed in bacterial expression system at 10 uM by Kinomescan method relative to control
[21] = target: Ribosomal protein S6 kinase alpha-2 (Homo sapiens) (UniProt Q15349); test: Inhibition of wild-type human partial length N-terminal RSK3 kinase domain 1 (M1 to Q385 residues) expressed in bacterial expression system at 10 uM by Kinomescan method relative to control
[22] = target: Casein kinase I isoform delta (Homo sapiens) (UniProt P48730); test: Inhibition of wild-type human full length CSNK1D (M1 to K409 residues) expressed in bacterial expression system at 10 uM by Kinomescan method relative to control
[23] = target: Activin receptor type-1-like (Homo sapiens) (UniProt P37023); test: Inhibition of wild-type human ACVRL1 (L164 to Q503 residues) expressed in bacterial expression system at 10 uM by Kinomescan method relative to control
[24] = target: High affinity nerve growth factor receptor (Homo sapiens) (UniProt P04629); test: Inhibition of wild-type human partial length TRKA (G475 to G790 residues) expressed in mammalian expression system at 10 uM by Kinomescan method relative to control
[25] = target: Macrophage colony-stimulating factor 1 receptor (Homo sapiens) (UniProt P07333); test: Inhibition of wild-type human partial length CSF1R (I564 to S939 residues) expressed in bacterial expression system at 10 uM by Kinomescan method relative to control
[26] = target: Tyrosine-protein kinase CSK (Homo sapiens) (UniProt P41240); test: Inhibition of wild-type human full length CSK (M1 to L450 residues) expressed in bacterial expression system at 10 uM by Kinomescan method relative to control
[27] = target: Hepatocyte growth factor receptor (Homo sapiens) (UniProt P08581); test: Inhibition of wild-type human partial length MET (D1010 to S1367 residues) expressed in bacterial expression system at 10 uM by Kinomescan method relative to control
Sequence of Hepatocyte growth factor receptor (Homo sapiens) (P08581 whole entry, the tested form may be a part): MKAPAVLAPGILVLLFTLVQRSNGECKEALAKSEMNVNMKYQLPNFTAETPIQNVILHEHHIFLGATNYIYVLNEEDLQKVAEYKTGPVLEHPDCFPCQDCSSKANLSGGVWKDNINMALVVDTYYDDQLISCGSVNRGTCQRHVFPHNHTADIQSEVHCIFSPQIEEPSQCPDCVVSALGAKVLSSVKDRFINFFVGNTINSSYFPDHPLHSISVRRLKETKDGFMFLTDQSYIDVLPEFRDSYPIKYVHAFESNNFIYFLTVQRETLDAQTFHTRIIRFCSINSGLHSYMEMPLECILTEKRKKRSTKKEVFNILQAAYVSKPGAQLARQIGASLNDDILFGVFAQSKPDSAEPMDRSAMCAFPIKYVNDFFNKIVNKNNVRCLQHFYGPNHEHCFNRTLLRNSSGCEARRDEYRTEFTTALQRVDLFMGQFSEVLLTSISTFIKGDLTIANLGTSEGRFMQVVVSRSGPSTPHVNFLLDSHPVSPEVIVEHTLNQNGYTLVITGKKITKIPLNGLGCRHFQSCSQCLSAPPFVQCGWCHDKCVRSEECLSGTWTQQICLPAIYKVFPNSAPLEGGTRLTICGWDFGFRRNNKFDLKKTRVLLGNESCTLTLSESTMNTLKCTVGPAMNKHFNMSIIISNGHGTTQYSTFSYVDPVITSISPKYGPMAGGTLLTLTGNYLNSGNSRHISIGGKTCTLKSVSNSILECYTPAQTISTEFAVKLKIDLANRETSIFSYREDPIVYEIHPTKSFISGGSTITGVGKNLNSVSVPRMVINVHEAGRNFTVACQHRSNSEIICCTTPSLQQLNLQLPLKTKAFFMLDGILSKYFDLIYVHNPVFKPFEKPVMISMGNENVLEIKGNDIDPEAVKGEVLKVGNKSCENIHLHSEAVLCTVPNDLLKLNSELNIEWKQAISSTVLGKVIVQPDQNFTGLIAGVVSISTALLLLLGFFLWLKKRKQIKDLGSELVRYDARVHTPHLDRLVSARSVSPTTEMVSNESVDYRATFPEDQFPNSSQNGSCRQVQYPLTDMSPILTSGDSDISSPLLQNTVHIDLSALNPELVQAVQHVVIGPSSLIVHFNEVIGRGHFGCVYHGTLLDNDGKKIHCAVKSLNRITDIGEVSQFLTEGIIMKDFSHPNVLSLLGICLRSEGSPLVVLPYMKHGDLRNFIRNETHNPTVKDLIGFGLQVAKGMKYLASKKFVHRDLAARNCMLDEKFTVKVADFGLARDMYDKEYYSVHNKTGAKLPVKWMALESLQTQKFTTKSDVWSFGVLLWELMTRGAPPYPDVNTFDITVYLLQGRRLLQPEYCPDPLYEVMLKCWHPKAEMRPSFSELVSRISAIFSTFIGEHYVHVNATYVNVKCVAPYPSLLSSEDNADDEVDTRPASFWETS

Sequence of Casein kinase I isoform epsilon (Homo sapiens) (P49674 whole entry, looked up, the tested form may be a part, canonical isoform): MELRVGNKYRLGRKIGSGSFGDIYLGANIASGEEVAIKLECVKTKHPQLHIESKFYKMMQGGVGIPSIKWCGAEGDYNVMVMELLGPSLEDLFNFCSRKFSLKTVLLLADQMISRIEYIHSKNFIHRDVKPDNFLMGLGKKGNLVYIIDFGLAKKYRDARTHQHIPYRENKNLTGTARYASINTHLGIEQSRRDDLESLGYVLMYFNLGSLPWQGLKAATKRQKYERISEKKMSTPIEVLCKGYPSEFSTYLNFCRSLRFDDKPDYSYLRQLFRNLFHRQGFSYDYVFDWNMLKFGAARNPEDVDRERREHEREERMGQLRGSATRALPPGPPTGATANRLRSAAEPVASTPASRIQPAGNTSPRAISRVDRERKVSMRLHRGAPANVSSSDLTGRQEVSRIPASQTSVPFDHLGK
Sequence of Inhibitor of nuclear factor kappa-B kinase subunit epsilon (Homo sapiens) (Q14164 whole entry, the tested form may be a part): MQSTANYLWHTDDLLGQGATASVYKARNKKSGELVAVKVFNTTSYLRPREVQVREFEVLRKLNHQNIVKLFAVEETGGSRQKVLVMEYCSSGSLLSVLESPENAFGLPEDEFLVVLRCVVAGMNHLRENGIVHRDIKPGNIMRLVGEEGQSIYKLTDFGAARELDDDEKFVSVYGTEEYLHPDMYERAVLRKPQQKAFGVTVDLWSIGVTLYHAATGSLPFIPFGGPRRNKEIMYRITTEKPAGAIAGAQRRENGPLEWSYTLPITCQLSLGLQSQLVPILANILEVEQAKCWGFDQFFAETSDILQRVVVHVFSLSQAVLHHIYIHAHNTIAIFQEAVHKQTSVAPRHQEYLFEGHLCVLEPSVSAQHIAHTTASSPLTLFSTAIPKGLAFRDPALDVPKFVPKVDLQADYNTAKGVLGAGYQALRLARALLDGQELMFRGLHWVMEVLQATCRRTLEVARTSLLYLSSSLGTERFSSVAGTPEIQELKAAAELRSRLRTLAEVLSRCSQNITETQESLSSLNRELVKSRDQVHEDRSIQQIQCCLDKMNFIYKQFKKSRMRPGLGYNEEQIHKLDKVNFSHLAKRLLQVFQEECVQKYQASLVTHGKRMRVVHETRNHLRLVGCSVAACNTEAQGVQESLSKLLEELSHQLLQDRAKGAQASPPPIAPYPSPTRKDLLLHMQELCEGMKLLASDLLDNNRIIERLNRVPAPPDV
Sequence of Ribosomal protein S6 kinase alpha-1 (Homo sapiens) (Q15418 whole entry, the tested form may be a part): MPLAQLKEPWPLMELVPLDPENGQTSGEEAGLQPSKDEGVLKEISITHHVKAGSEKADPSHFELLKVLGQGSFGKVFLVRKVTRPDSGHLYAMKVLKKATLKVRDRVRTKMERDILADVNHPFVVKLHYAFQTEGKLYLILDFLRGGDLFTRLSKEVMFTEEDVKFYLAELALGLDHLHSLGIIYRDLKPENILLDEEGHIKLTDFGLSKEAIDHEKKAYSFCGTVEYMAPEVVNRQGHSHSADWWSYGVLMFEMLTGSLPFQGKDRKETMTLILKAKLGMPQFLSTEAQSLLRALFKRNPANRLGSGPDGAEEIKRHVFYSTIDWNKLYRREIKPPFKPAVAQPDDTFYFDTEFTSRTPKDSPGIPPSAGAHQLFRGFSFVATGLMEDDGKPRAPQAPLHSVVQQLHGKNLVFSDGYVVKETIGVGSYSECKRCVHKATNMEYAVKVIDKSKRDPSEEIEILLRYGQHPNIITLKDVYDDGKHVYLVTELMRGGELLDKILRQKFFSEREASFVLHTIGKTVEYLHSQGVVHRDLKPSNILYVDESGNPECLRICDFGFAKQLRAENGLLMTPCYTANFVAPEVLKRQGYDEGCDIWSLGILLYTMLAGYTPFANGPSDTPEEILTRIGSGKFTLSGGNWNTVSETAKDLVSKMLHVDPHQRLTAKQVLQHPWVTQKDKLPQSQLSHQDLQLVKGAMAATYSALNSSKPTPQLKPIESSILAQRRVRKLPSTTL
Sequence of Cyclin-dependent kinase 3 (Homo sapiens) (Q00526 whole entry, looked up, the tested form may be a part): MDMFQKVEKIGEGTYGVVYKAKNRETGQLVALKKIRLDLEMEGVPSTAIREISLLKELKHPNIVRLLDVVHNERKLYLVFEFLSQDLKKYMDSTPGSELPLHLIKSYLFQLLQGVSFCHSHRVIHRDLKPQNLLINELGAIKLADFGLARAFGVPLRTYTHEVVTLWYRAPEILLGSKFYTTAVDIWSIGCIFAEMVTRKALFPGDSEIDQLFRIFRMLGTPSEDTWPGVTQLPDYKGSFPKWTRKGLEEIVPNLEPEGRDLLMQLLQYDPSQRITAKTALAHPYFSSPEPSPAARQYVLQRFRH
Sequence of Serine/threonine-protein kinase PknB (Mycobacterium tuberculosis) (P9WI81 whole entry, the tested form may be a part): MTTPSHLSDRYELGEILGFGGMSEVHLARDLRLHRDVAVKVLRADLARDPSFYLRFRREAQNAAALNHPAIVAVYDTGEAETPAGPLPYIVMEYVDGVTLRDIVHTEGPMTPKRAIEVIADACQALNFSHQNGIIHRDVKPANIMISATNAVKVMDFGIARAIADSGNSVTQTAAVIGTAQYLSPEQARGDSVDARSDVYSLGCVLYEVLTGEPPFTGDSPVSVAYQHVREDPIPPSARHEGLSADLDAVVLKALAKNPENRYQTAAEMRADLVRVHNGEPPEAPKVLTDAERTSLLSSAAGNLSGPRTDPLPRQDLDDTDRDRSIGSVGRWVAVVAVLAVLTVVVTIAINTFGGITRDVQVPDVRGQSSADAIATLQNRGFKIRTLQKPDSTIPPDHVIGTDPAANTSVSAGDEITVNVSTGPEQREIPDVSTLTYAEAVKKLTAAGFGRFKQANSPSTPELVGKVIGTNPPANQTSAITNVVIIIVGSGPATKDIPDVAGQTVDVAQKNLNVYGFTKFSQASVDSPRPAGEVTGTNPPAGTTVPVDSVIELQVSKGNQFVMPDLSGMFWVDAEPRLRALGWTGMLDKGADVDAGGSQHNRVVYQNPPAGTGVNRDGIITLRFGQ
Sequence of Dual specificity mitogen-activated protein kinase kinase 2 (Homo sapiens) (P36507 whole entry, the tested form may be a part): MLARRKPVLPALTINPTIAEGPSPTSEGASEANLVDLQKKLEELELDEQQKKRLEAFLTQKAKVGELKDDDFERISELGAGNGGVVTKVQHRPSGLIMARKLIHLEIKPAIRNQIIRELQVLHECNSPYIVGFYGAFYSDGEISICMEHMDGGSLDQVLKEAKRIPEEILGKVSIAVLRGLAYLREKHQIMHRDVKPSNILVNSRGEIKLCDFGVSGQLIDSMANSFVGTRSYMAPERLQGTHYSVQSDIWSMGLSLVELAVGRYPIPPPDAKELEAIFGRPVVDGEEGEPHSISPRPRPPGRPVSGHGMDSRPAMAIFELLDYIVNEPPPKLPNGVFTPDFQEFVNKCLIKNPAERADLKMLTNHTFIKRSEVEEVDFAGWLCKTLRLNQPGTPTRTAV
Sequence of Tyrosine-protein kinase CSK (Homo sapiens) (P41240 2-450 limits assumed): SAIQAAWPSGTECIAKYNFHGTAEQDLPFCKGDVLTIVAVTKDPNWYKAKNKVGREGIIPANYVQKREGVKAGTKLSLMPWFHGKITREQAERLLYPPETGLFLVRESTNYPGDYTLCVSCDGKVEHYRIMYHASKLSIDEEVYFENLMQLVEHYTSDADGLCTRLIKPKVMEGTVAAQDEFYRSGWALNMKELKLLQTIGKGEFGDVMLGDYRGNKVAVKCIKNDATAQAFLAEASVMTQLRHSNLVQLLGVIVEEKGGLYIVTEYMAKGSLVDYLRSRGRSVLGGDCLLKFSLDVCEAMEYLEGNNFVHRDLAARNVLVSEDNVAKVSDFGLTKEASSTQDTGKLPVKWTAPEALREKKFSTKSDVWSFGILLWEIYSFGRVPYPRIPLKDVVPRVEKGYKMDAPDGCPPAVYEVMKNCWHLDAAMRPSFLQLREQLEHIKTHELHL

## O=C(Nc1cccc([C@@H]2CN(c3ncnc4[nH]ccc34)CCN2CCO)c1)Nc1c(F)cccc1N1CCCC1
[1]
  inhibition: 96%
[2]
  inhibition: 5.3%
[3]
  inhibition: 93%
[4]
  inhibition: 94%
[5]
  inhibition: 100%
[6]
  inhibition: 100%
[7]
  inhibition: 73%
[8]
  inhibition: 40%
[9]
  inhibition: 90%
[10]
  inhibition: 11%
[11]
  inhibition: 76%
[12]
  inhibition: 68%
[13]
  inhibition: 100%
[14]
  inhibition: 95%

## O=C(Nc1cccc([C@H]2CCCN(c3ncnc4[nH]ccc34)C2)c1)Nc1ccccc1N1CCCC1
[15]
  inhibition: 100%
[16]
  inhibition: 86%
[17]
  inhibition: 67%
[18]
  inhibition: 83%
[19]
  inhibition: 29%
[20]
  inhibition: 100%
[21]
  inhibition: 78%
[22]
  inhibition: 100%
[23]
  inhibition: 100%
[24]
  inhibition: 26%
[25]
  inhibition: 20%
[26]
  inhibition: 83%
[27]
  inhibition: 86%
